# Reference: patent US20240148821A1, “PHARMACEUTICAL USE OF CYCLIC PEPTIDE COMPOUND” (CHUGAI SEIYAKU KABUSHIKI KAISHA, priority 2021, published 2024)
# Numbered stars: 1 amine (or outer) side, 2 acyl side, 3 side chain; on linkers, the order of the positions; unused ones are H or OH. Bridge positions count the residues as written; N and C are the ends. Square brackets hold non-standard residues; d marks the D form. Peptide text beside a SMILES is read from it. * marks the point of attachment. hPhe(3-Cl-4-CF3) = N[C@@H](CCc1ccc(C(F)(F)F)c(Cl)c1)C(=O)O; hPhe(3-F,4-CF3) = N[C@@H](CCc1ccc(C(F)(F)F)c(F)c1)C(=O)O; NMePhe(4-CF3) = CN[C@@H](Cc1ccc(C(F)(F)F)cc1)C(=O)O; X71 = O=C([C@H](CCc1ccc(C(F)(F)F)cc1F)N[*:1])[*:2]; 3Oxa8azabicyclo(3.2.1)octane = C1CC2COCC1N2*; NEtPhe(4-Me) = CCN[C@@H](Cc1ccc(C)cc1)C(=O)O; NMePhe(4-Cl) = CN[C@@H](Cc1ccc(Cl)cc1)C(=O)O; NMePhe(4-I) = CN[C@@H](Cc1ccc(I)cc1)C(=O)O; X2 = COc1ccc(CC[C@H](N[*:1])C(=O)[*:2])cn1; NMedβ3hAla = C[C@H](CC(=O)[*:2])N(C)[*:1]; NMeAla(cPent) = CN[C@@H](CC1CCCC1)C(=O)O; NMeGly(cPent) = CN[C@H](C(=O)O)C1CCCC1; Phe(3-I) = N[C@@H](Cc1cccc(I)c1)C(=O)O; X26 = CC(C)=CC[C@H](N[*:1])C(=O)[*:2]; NMeCha = CN[C@@H](CC1CCCCC1)C(=O)O; NMeChg = CN[C@H](C(=O)O)C1CCCCC1; NMeF = CN[C@@H](Cc1ccccc1)C(=O)O; NMeI = CC[C@H](C)[C@H](NC)C(=O)O; Piperidide(4-Me) = CC1CCN(*)CC1; X17 = FC1(F)CN(*)CC(F)(F)C1(F)F; NMeD = CN[C@@H](CC(=O)O)C(=O)O; NMeHpra = C#CCC[C@H](NC)C(=O)O; NMeL = CN[C@@H](CC(C)C)C(=O)O; NMeNle = CCCC[C@H](NC)C(=O)O; NMeNva = CCC[C@H](NC)C(=O)O; NMeV = CN[C@H](C(=O)O)C(C)C; Trifluoroethyl = FC(F)(F)C*; d(β3hA) = C[C@@H](N)CC(=O)O; NMeAbu = CC[C@H](NC)C(=O)O; NMeS = CN[C@@H](CO)C(=O)O; NMeA = CN[C@@H](C)C(=O)O; NMeAib = CNC(C)(C)C(=O)O; Piperidide = C1CCN(*)CC1; Pyrrolidide = C1CCN(*)C1; Ac5c = NC1(C(=O)O)CCCC1; Aze = O=C(O)[C@@H]1CCN1; Ac4c = NC1(C(=O)O)CCC1; Sar = CNCC(=O)O; Propyl = CCC*
# Molecular target: protein-protein interaction between Kras and SOS1 (biotin-tagged human Kras loaded with GDP, His-tagged human SOS1) (Homo sapiens (Human), UniProt P01116, G12D)
# Assay: Protein-protein interaction inhibition between Kras and SOS1 (KrasG12D-SOS PPI) using AlphaScreen;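 note: kras produced in E. coli, Ni-coupled donor beads and streptavidin acceptor beads, excitation 680 nm with emission detected at 520–620 nm via singlet oxygen transfer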
# Type: biochemical
# Conditions: AlphaScreen; biotin-tagged human Kras loaded with GDP, His-tagged human SOS1; read-out: KRAS G12D-SOS PPI IC50
row,SMILES,IC50
1,CC[C@H](C)[C@@H]1NC(=O)[C@H](CC(C)C)N(C)C(=O)C[C@@H](C)N(C)C(=O)[C@H](C2CCCC2)N(C)C(=O)C2(CCCC2)NC(=O)[C@@H]2CCCN2C(=O)[C@H](CCc2ccc(C(F)(F)F)c(Cl)c2)NC(=O)CN(C)C(=O)[C@H](Cc2ccc(C)cc2)N(CC)C(=O)[C@@H]2CCN2C(=O)[C@H](C)N(C)C1=O [Compound 494] (cyclo([Ac5c][NMeGly(cPent)][NMedβ3hAla][NMeL]I[NMeA][Aze][NEtPhe(4-Me)][Sar][hPhe(3-Cl-4-CF3)]P)),8.6 nM
2,CC[C@H](C)[C@@H]1NC(=O)[C@H](C)N(C)C(=O)C[C@@H](C)NC(=O)[C@H](C2CCCCC2)N(C)C(=O)C(C)(C)N(C)C(=O)[C@@H]2CCCN2C(=O)[C@H](CCc2ccc(C(F)(F)F)c(Cl)c2)NC(=O)CN(C)C(=O)[C@H](CC2CCCCC2)N(C)C(=O)[C@@H]2CCN2C(=O)[C@H](C)N(C)C1=O [Compound 291] (cyclo([Aze][NMeCha][Sar][hPhe(3-Cl-4-CF3)]P[NMeAib][NMeChg][d(β3hA)][NMeA]I[NMeA])),55 nM
3,CCC[C@H]1C(=O)N[C@@H]([C@@H](C)CC)C(=O)N(C)[C@@H](C)C(=O)N2CC[C@H]2C(=O)N(C)[C@@H](CC2CCCCC2)C(=O)N(C)CC(=O)N[C@@H](CCc2ccc(C(F)(F)F)c(Cl)c2)C(=O)N2CCC[C@H]2C(=O)NC2(CCCC2)C(=O)N(C)[C@@H](C(C)C)C(=O)N(C)[C@H](C(=O)N2CCCCC2)CC(=O)N1C [Compound 1639] ([NMeNva]I[NMeA][Aze][NMeCha][Sar][hPhe(3-Cl-4-CF3)]P[Ac5c][NMeV][NMeD]-Piperidide; lactam N-11),5.8 nM
4,CC[C@H](C)[C@@H]1NC(=O)[C@H](COCC(F)(F)F)N(C)C(=O)C[C@@H](C(=O)N2CCCCC2)N(C)C(=O)[C@H](C(C)C)N(C)C(=O)C2(CCCC2)NC(=O)[C@@H]2CCCN2C(=O)[C@H](CCc2ccc(C(F)(F)F)c(Cl)c2)NC(=O)CN(C)C(=O)[C@H](CC2CCCCC2)N(C)C(=O)[C@@H]2CCN2C(=O)[C@H](C)N(C)C1=O [Compound 387] ([NMeS](Trifluoroethyl)I[NMeA][Aze][NMeCha][Sar][hPhe(3-Cl-4-CF3)]P[Ac5c][NMeV][NMeD]-Piperidide; lactam N-11),4.2 nM
5,C#CCC[C@H]1C(=O)N[C@@H]([C@@H](C)CC)C(=O)N(C)[C@@H](C)C(=O)N2CC[C@H]2C(=O)N(C)[C@@H](Cc2ccc(I)cc2)C(=O)N(C)CC(=O)N[C@@H](CCc2ccc(C(F)(F)F)c(Cl)c2)C(=O)N2CCC[C@H]2C(=O)NC2(CCCC2)C(=O)N(C)[C@@H](C2CCCCC2)C(=O)N(C)[C@H](C)CC(=O)N1C [Compound 961] (cyclo([Ac5c][NMeChg][NMedβ3hAla][NMeHpra]I[NMeA][Aze][NMePhe(4-I)][Sar][hPhe(3-Cl-4-CF3)]P)),12 nM
6,CC[C@H](C)[C@@H]1NC(=O)[C@H](C)N(C)C(=O)C[C@@H](C)NC(=O)[C@H](C2CCCC2)N(C)C(=O)C2(CCC2)NC(=O)[C@@H]2CCCN2C(=O)[C@H](CCc2ccc(C(F)(F)F)c(Cl)c2)NC(=O)CN(C)C(=O)[C@H](Cc2ccc(C(F)(F)F)cc2)N(C)C(=O)CN(C)C(=O)CN(C)C1=O [Compound 1486] (cyclo([Ac4c][NMeGly(cPent)][d(β3hA)][NMeA]I[Sar][Sar][NMePhe(4-CF3)][Sar][hPhe(3-Cl-4-CF3)]P)),0.5 nM
7,CC[C@H](C)[C@@H]1NC(=O)[C@H](CC(C)C)N(C)C(=O)C[C@@H](C(=O)N2CCCCC2)N(C)C(=O)[C@H](C2CCCC2)N(C)C(=O)C2(CCCC2)NC(=O)[C@@H]2CCCN2C(=O)[C@H](CCc2ccc(OC)nc2)NC(=O)CN(C)C(=O)[C@H](CC2CCCCC2)N(C)C(=O)[C@@H]2CCN2C(=O)[C@H](C)N(C)C1=O [Compound 2084] ([NMeL]I[NMeA][Aze][NMeCha][Sar][X2]P[Ac5c][NMeGly(cPent)][NMeD]-Piperidide; lactam N-11 (inferred); C-terminus assumed),130 nM
8,CCCC[C@H]1C(=O)N(C)[C@H](C(=O)N2CCCCC2)CC(=O)N(C)[C@@H](CC(C)C)C(=O)N[C@@H]([C@@H](C)CC)C(=O)N(C)[C@@H](C)C(=O)N2CC[C@H]2C(=O)N(C)[C@@H](CC2CCCCC2)C(=O)N(C)CC(=O)N[C@@H](CCc2ccc(C(F)(F)F)c(Cl)c2)C(=O)N2CCC[C@H]2C(=O)NC2(CCCC2)C(=O)N1C [Compound 1859] ([NMeL]I[NMeA][Aze][NMeCha][Sar][hPhe(3-Cl-4-CF3)]P[Ac5c][NMeNle][NMeD]-Piperidide; lactam N-11),15 nM
9,CCCOC[C@H]1C(=O)N(C)CC(=O)N[C@@H](CCc2ccc(C(F)(F)F)c(Cl)c2)C(=O)N2CCC[C@H]2C(=O)NC2(CCCC2)C(=O)N(C)[C@@H](C2CCCC2)C(=O)N(C)[C@H](C(=O)N2C3CCC2COC3)CC(=O)N(C)[C@@H](CC2CCCC2)C(=O)N[C@@H]([C@@H](C)CC)C(=O)N[C@@H](C)C(=O)N2CC[C@H]2C(=O)N1C [Compound 1359] ([NMeAla(cPent)]IA[Aze][NMeS](Propyl)[Sar][hPhe(3-Cl-4-CF3)]P[Ac5c][NMeGly(cPent)][NMeD]-{3Oxa8azabicyclo(3.2.1)octane}; lactam N-11),6.2 nM
10,CC(C)C[C@H]1C(=O)N[C@@H](C(C)C)C(=O)N(C)[C@@H](C)C(=O)N2CC[C@H]2C(=O)N(C)[C@@H](CC2CCCCC2)C(=O)N(C)CC(=O)N[C@@H](CCc2ccc(C(F)(F)F)c(Cl)c2)C(=O)N2CCC[C@H]2C(=O)NC2(CCCC2)C(=O)N(C)[C@@H](C(C)C)C(=O)N(C)[C@H](C(=O)N2CCCCC2)CC(=O)N1C [Compound 1791] ([NMeL]V[NMeA][Aze][NMeCha][Sar][hPhe(3-Cl-4-CF3)]P[Ac5c][NMeV][NMeD]-Piperidide; lactam N-11),3 nM
11,CC[C@H](C)[C@@H]1NC(=O)[C@H](CC(C)C)N(C)C(=O)C[C@@H](C(=O)N2CC(F)(F)C(F)(F)C(F)(F)C2)NC(=O)[C@H]([C@@H](C)CC)N(C)C(=O)C2(CCCC2)NC(=O)[C@@H]2CCCN2C(=O)[C@H](CCc2ccc(C(F)(F)F)c(Cl)c2)NC(=O)CN(C)C(=O)[C@H](CC2CCCCC2)N(C)C(=O)CN(C)C(=O)CN(C)C1=O [Compound 1265] ([NMeL]I[Sar][Sar][NMeCha][Sar][hPhe(3-Cl-4-CF3)]P[Ac5c][NMeI]D-X17; lactam N-11),280 nM
12,CC[C@H](C)[C@@H]1NC(=O)[C@H](CC(C)C)N(C)C(=O)C[C@@H](C)N(C)C(=O)[C@H](C(C)C)N(C)C(=O)C2(CCCC2)NC(=O)[C@@H]2CCCN2C(=O)[C@H](CCc2ccc(C(F)(F)F)c(Cl)c2)NC(=O)CN(C)C(=O)[C@H](CC2CCCCC2)N(C)C(=O)[C@@H]2CCN2C(=O)CN(C)C1=O [Compound 1648] (cyclo([Ac5c][NMeV][NMedβ3hAla][NMeL]I[Sar][Aze][NMeCha][Sar][hPhe(3-Cl-4-CF3)]P)),10 nM
13,CC[C@H](C)[C@@H]1NC(=O)[C@H](CC(C)C)N(C)C(=O)C[C@@H](C(=O)N2CCC(C)CC2)N(C)C(=O)[C@H](C(C)C)N(C)C(=O)C2(CCCC2)NC(=O)[C@@H]2CCCN2C(=O)[C@H](CCc2ccc(C(F)(F)F)c(Cl)c2)NC(=O)CN(C)C(=O)[C@H](CC2CCCCC2)N(C)C(=O)[C@@H]2CCN2C(=O)[C@H](C)N(C)C1=O [Compound 1291] ([NMeL]I[NMeA][Aze][NMeCha][Sar][hPhe(3-Cl-4-CF3)]P[Ac5c][NMeV][NMeD]-{Piperidide(4-Me)}; lactam N-11),5.4 nM
14,"CC[C@H](C)[C@@H]1NC(=O)[C@H](C)N(C)C(=O)C[C@@H](C(=O)N2CCCC2)NC(=O)[C@H](CC(C)C)N(C)C(=O)[C@H](Cc2ccccc2)N(C)C(=O)[C@@H]2CCCN2C(=O)[C@H](CCc2ccc(C(F)(F)F)cc2F)NC(=O)CN(C)C(=O)[C@H](Cc2ccc(Cl)cc2)N(C)C(=O)CN(C)C(=O)CN(C)C1=O [Compound 2096, (3S,9S,18S,21S,25S,28S,31S,34S)-31-benzyl-9-[(4-chlorophenyl)methyl]-3-[2-[2-fluoro-4-(trifluoromethyl)phenyl]ethyl]-28-isobutyl-7,10,13,16,21,22,29,32-octamethyl-18-[(1S)-1-methylpropyl]-25-(pyrrolidine-1-carbonyl)-1,4,7,10,13,16,19,22,26,29,32-undecazabicyclo[32.3.0]heptatriacontane-2,5,8,11,14,17,20,23,27,30,33-undecone] ([NMeA]I[Sar][Sar][NMePhe(4-Cl)][Sar][X71]P[NMeF][NMeL]D-Pyrrolidide; lactam N-11)",19 nM
15,CC[C@H](C)[C@@H]1NC(=O)[C@H](CC(C)C)N(C)C(=O)C[C@@H](C)N(C)C(=O)[C@H](CC(C)C)NC(=O)C(C)(C)N(C)C(=O)[C@H](CC=C(C)C)NC(=O)[C@H](Cc2cccc(I)c2)NC(=O)CN(C)C(=O)[C@H](Cc2ccc(Cl)cc2)N(C)C(=O)CN(C)C(=O)CN(C)C1=O [Compound 1418] (cyclo(I[Sar][Sar][NMePhe(4-Cl)][Sar][Phe(3-I)][X26][NMeAib]L[NMedβ3hAla][NMeL])),110 nM
16,"CC[C@H](C)[C@@H]1NC(=O)[C@H](CC(C)C)N(C)C(=O)C[C@@H](C(=O)N2CCCCC2)N(C)C(=O)[C@H](C(C)C)N(C)C(=O)C2(CCCC2)NC(=O)[C@@H]2CCCN2C(=O)[C@H](CCc2ccc(C(F)(F)F)c(F)c2)NC(=O)CN(C)C(=O)[C@H](CC2CCCCC2)N(C)C(=O)[C@@H]2CCN2C(=O)[C@H](C)N(C)C1=O [Compound 1040] ([NMeL]I[NMeA][Aze][NMeCha][Sar][hPhe(3-F,4-CF3)]P[Ac5c][NMeV][NMeD]-Piperidide; lactam N-11)",14 nM
17,CC[C@H](C)[C@@H]1NC(=O)[C@H](CC(C)C)N(C)C(=O)C[C@@H](C)NC(=O)[C@H](C(C)C)N(C)C(=O)C2(CCCC2)NC(=O)[C@@H]2CCCN2C(=O)[C@H](CCc2ccc(C(F)(F)F)c(Cl)c2)NC(=O)CN(C)C(=O)[C@H](CC2CCCCC2)N(C)C(=O)[C@@H]2CCN2C(=O)[C@H](CC)N(C)C1=O [Compound 1593] (cyclo([Ac5c][NMeV][d(β3hA)][NMeL]I[NMeAbu][Aze][NMeCha][Sar][hPhe(3-Cl-4-CF3)]P)),140 nM
